Results on 10 molecules are retold here after patent publication US20240025903A1, “Bicyclic Compounds and Uses Thereof for the Treatment of Diseases” (Athira Pharma, Inc., priority 2020, published 2024).

Data set [1] can be described thus: Non-specific protein binding (rapid equilibrium dialysis). Type of data set: in vitro ADME, Sprague-Dawley rats. To be noted: both sexes, Sprague-Dawley, RED device, 4-hour incubation at 37° C. The procedure:
Plasma and tissue exposures of exemplary compounds were scaled by their non-specific affinity for protein binding in target tissues or fluids to determine the fraction of compound available for interaction with the target. Non-specific binding was determined in blood plasma and brain homogenate collected from mixed-sex Sprague-Dawley rats.
Known concentrations of test compounds were mixed with plasma or brain homogenate and incubated in the donor chamber of a rapid equilibrium dialysis (RED) device with empty PBS buffer in the receiving chamber. After a 4-hour incubation at 37° C. in an orbital shaking incubator, compound in each chamber was quantified by LC-MS/MS. The unbound fraction (fu,tissue) was calculated using the following formula:
[formula] • where: • fu,tissue is the unbound fraction in the tissue; • fu,homogenate is the ratio of concentration in the buffer chamber to concentration in the sample chamber; and • D is the dilution factor used to produce the sample.
For orientation: In equilibrium dialysis free small molecules cross a membrane that holds back macromolecules.

In data set [2] the test system is scopolamine-induced spatial memory deficit in rats. Put plainly: Scopolamine-induced spatial memory deficit in the Morris water maze (compound 1a). Type of data set: in vivo. To be noted: rat, scopolamine 2 mg/kg IP, escape latency over 5 days, post-test p-value. The procedure: Exemplary compound 1a was evaluated for its ability to reverse chemically-induced spatial memory deficits in rats in the Morris water maze. The water maze consists of a large round tank (diameter 1.5 m) filled with 23-26° C. water to a depth of −30 cm and the water was clouded with white paint. A round platform was fixed such that it rested 2-3 cm below the surface of the water. High-contrast visual cues were placed around the tank to aid spatial orientation of test animals. Testing consisted of placing an animal into the water facing the tank wall at one of three randomly assigned starting locations and allowing the animal to swim and search for the hidden platform for up to 90 seconds. The time taken for the animal to locate the platform was recorded as the escape latency. Animals were tested 5 times per day with a 30 second rest period between trials. Testing was completed for a total of 5 consecutive days.
Animals were divided into groups (N=12 per group) depending on treatment. Control animals received only empty vehicle. Scopolamine groups received 2 mg/kg scopolamine dissolved in sterile saline by intraperitoneal (IP) injection 30 minutes prior to testing. Test compound groups received test compound at various concentrations by oral gavage (PO) dissolved in 78% sterile saline, 20% polyethylene glycol (PEG-400), and 2% DMSO 40 minutes prior to testing. Escape latencies were recorded for each animal for 5 trials each day for 5 consecutive days. Changes in escape latency curves were statistically analyzed by 2-way ANOVA with Bonferoni post-test.

The test system is the same in data set [3]. Put plainly: Scopolamine-induced spatial memory deficit in the Morris water maze (compounds 2a and 6a). The data set is classed as in vivo. The note with it: rat, scopolamine 3 mg/kg IP, escape latency over 8 days, post-test p-value. The procedure:
Exemplary compounds 2a and 6a were evaluated for their ability to reverse chemically-induced spatial memory deficits in rats in the Morris water maze. The water maze consists of a large round tank (diameter 2.1 m) filled with 26-28° C. water to a depth of −30 cm and the water was clouded with white paint. A round platform (13 cm diameter) was fixed such that it rested 2-3 cm below the surface of the water. High-contrast visual cues were placed around the tank to aid spatial orientation of test animals. Testing consisted of placing an animal into the water facing the tank wall at one of three randomly assigned starting locations and allowing the animal to swim and search for the hidden platform for up to 120 seconds. The time taken for the animal to locate the platform was recorded as the escape latency. Animals were tested 5 times per day with a 30 second rest period between trials. Testing was completed for a total of 8 consecutive days.
Animals were divided into groups (N=8 per group) depending on treatment. Control animals received only empty vehicle. Scopolamine groups received 3 mg/kg scopolamine dissolved in sterile saline by intraperitoneal (IP) injection 30 minutes prior to testing. Test compound groups received test compound at various concentrations by oral gavage (PO) dissolved in 48% sterile saline, 50% polyethylene glycol (PEG-400), and 2% DMSO 40 minutes prior to testing. Escape latencies were recorded for each animal for 5 trials each day for 8 consecutive days. Changes in escape latency curves were statistically analyzed by 2-way ANOVA with Bonferoni post-test.

Setting [4] is: rat blood plasma, read-out: Unbound Fraction Plasma.
The mark [5] stands for this setting: rat brain homogenate, read-out: Unbound Fraction Brain.

Read-outs that look alike come from different tables or passages of the source.

As a reminder, the fraction unbound is the share of the substance not bound to proteins or other matrix. On to `CCC(C)CN1CC2N(C(=O)c3ccc(C(F)(F)F)cc3)CCC(=O)N2[C@@H](C)C1=O` (stereo partly shown) [Compound 1a], for which the fraction unbound at 4 h was 0.5 to 0.9 in data set [1] (setting [4]) and 0.1 to 0.5 in data set [1] (setting [5]). Moreover, the “Cognitive Improvement” value in data set [2] (0.5 mg/kg PO) was “+ (+ indicates post-test p-value between 0.06 and 0.05)”; in data set [2] (2 mg/kg PO) it was “− (− indicates post-test p-value above 0.06)”; in data set [2] (8 mg/kg PO) it was “− (− indicates post-test p-value above 0.06)”.

On to `CCC(C)CN1CC2N(C(=O)c3ccc(OC(F)F)cc3)CCC(=O)N2[C@@H](C)C1=O` (stereo partly shown) [Compound 2a], for which the fraction unbound at 4 h in data set [1] (setting [4]) was 0.5 to 0.9; in data set [1] (setting [5]), 0.1 to 0.5. The results for the “Cognitive Improvement” value in data set [3] (0.1 mg/kg PO), in data set [3] (1 mg/kg PO) and in data set [3] (10 mg/kg PO) were “− (− indicates post-test p-value above 0.06)”, “+++ (+++ indicates post-test p-value below 0.01)” and “− (− indicates post-test p-value above 0.06)”, respectively.

For the molecule `CCC(C)CN1CC2N(Cc3ccc(C(F)(F)F)cc3)CCC(=O)N2[C@@H](C)C1=O` (stereo partly shown) [Compound 5a], the fraction unbound at 4 h in data set [1] (setting [4]) and in data set [1] (setting [5]) was less than 0.1 each time.

For the molecule `CCC(C)CN1CC2N(Cc3ccc(OC(F)F)cc3)CCC(=O)N2[C@@H](C)C1=O` (stereo partly shown) [Compound 6a], the fraction unbound at 4 h was 0.1 to 0.5 in data set [1] (setting [4]) and less than 0.1 in data set [1] (setting [5]). In addition, the “Cognitive Improvement” value in data set [3] (1 mg/kg PO) was “− (− indicates post-test p-value above 0.06)”; in data set [3] (10 mg/kg PO), “++ (++ indicates post-test p-value between 0.05 and 0.01)”.

With `CCC(C)CN1CC2N(Cc3ccc(O)nc3)CCC(=O)N2[C@@H](C)C1=O` (stereo partly shown) [Compound 7a], the fraction unbound at 4 h is greater than 0.9 in data set [1] (setting [4]) and 0.5 to 0.9 in data set [1] (setting [5]).

Consider `CCC(C)CN1CC2N(C(=O)c3ccc(F)cc3)CCC(=O)N2C(C)C1=O` (stereo not shown) [Compound 11, 1-(4-fluorobenzoyl)-6-methyl-8-(2-methylbutyl)hexahydro-4H-pyrazino[1,2-a]pyrimidine-4,7(6H)-dione], for which the fraction unbound at 4 h in data set [1] (setting [4]) was less than 0.1; in data set [1] (setting [5]) it was 0.1 to 0.5.

For the molecule `CCC(C)CN1CC2N(C(=O)c3ccc(C(F)(F)F)c(Cl)c3)CCC(=O)N2C(C)C1=O` (stereo not shown) [Compound 12, 1-(3-chloro-4-(trifluoromethyl)benzoyl)-6-methyl-8-(2-methylbutyl)hexahydro-4H-pyrazino[1,2-a]pyrimidine-4,7(6H)-dione], the fraction unbound at 4 h in data set [1] (setting [4]) and in data set [1] (setting [5]) was 0.1 to 0.5 in each case.

As to `CC1C(=O)N(CC2CCC2)CC2N(C(=O)c3ccc(OC(F)F)cc3)CCC(=O)N12` (stereo not shown) [Compound 14], the figures for the fraction unbound at 4 h in data set [1] (setting [4]) and in data set [1] (setting [5]) were 0.1 to 0.5 and greater than 0.9, respectively.

Consider `CC1C(=O)N(CCC2CCC2)CC2N(C(=O)c3ccc(C(F)(F)F)cc3)CCC(=O)N12` (stereo not shown) [Compound 20], for which the fraction unbound at 4 h in data set [1] (setting [4]) fell in the range of 0.1 to 0.5; in data set [1] (setting [5]), 0.5 to 0.9.

Consider `C=CCCN1CC2N(C(=O)c3ccc(C(F)(F)F)cc3)CCC(=O)N2C(C)C1=O` (stereo not shown) [Compound 22], for which the fraction unbound at 4 h in data set [1] (setting [4]) was 0.1 to 0.5; in data set [1] (setting [5]), greater than 0.9.
